Laboratory results as given in ChEMBL document CHEMBL1201862, “PubChem BioAssay data set” (2004).
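Five concentrations, 48 hours, 96-well plates. GI50 = concentration required for 50% inhibition of growth.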 Calls of active or inactive are those of the source. Rule as the data show it: active = GI50 up to about 1.1 µM and inactive = higher.

Tests used:
Assay in all cases: growth of human tumour cells (NCI), 48 h
[1] = test system: HOP-92
[2] = test system: SK-MEL-2
[3] = test system: DU-145
[4] = test system: OVCAR-8
[5] = test system: HCT-116
[6] = test system: K562
[7] = test system: U-251
[8] = test system: M14
[9] = test system: SK-MEL-28
[10] = test system: SNB-19
[11] = test system: TK-10
[12] = test system: HCT-15
[13] = test system: SF-268
[14] = test system: SF-295
[15] = test system: IGROV-1
[16] = test system: SN12C
[17] = test system: EKVX
[18] = test system: MCF7
[19] = test system: SW-620
[20] = test system: MDA-MB-435

Row | SMILES | GI50 [1] | GI50 [2] | GI50 [3] | GI50 [4] | GI50 [5] | GI50 [6] | GI50 [7] | GI50 [8] | GI50 [9] | GI50 [10] | GI50 [11] | GI50 [12] [µM] | GI50 [13] | GI50 [14] | GI50 [15] | GI50 [16] | GI50 [17] | GI50 [18] | GI50 [19] | GI50 [20]
1 | Nc1nc(SCc2ccccc2)c2ncn(Cc3ccccc3)c2n1 | > 85.9 µM (inactive) | > 58.1 µM (inactive) | > 100 µM (inactive) | > 100 µM (inactive) | > 100 µM (inactive) | > 87.3 µM (inactive) | > 100 µM (inactive) | > 100 µM (inactive) | > 100 µM (inactive) | > 100 µM (inactive) | > 100 µM (inactive) | > 81.3 | > 84.7 µM (inactive) | > 100 µM (inactive) | > 100 µM (inactive) | > 100 µM (inactive) | > 100 µM (inactive) | > 90.8 µM (inactive) | > 100 µM (inactive) | > 71.8 µM (inactive)
2 | Cc1cc(C(=O)CSC(=S)SC(C)(C)C)ccc1Cl | 24.8 µM (inactive) | 19.9 µM (inactive) | 26.5 µM (inactive) | 32.1 µM (inactive) | 18.7 µM (inactive) | 31.2 µM (inactive) | 15.1 µM (inactive) | 16.4 µM (inactive) | 19.8 µM (inactive) | 16 µM (inactive) | 25.2 µM (inactive) | 22.3 | 18.2 µM (inactive) | 17.7 µM (inactive) | 33.1 µM (inactive) | 18.2 µM (inactive) | 24.5 µM (inactive) | 25.6 µM (inactive) | 23.2 µM (inactive) | 23.7 µM (inactive)
3 | Cn1cnc([N+](=O)[O-])c1SCC(=O)O | > 100 µM (inactive) | > 100 µM (inactive) | > 100 µM (inactive) | > 100 µM (inactive) | > 100 µM (inactive) | > 100 µM (inactive) | > 100 µM (inactive) | > 100 µM (inactive) | > 100 µM (inactive) | > 100 µM (inactive) | > 100 µM (inactive) | > 100 | > 100 µM (inactive) | > 100 µM (inactive) | > 100 µM (inactive) | > 100 µM (inactive) | > 100 µM (inactive) | > 100 µM (inactive) | > 100 µM (inactive) | > 100 µM (inactive)
4 | COc1ccc(N2N=NN(C(C)C)/C2=C(/Cl)c2nnnn2-c2ccc(OC)cc2)cc1 | 2.25 µM (inactive) | 13.4 µM (inactive) | 8.11 µM (inactive) | 6.11 µM (inactive) | 5 µM (inactive) | 3.9 µM (inactive) | 17.5 µM (inactive) | 8.81 µM (inactive) | 15.5 µM (inactive) | 16 µM (inactive) | 16.2 µM (inactive) | 15.8 | 16.2 µM (inactive) | 16.6 µM (inactive) | 14.9 µM (inactive) | 14.3 µM (inactive) | 18.2 µM (inactive) | 9.46 µM (inactive) | 1.82 µM (inactive) | 12.6 µM (inactive)
5 | CC(C)/C(Cl)=N/OC(=O)Nc1ccc(Cl)c(Cl)c1 | 1.72 µM (inactive) | 18.4 µM (inactive) | 18.1 µM (inactive) | 18.1 µM (inactive) | 2.18 µM (inactive) | 0.989 µM (active) | 21.2 µM (inactive) | 2.45 µM (inactive) | 2.01 µM (inactive) | 21.5 µM (inactive) | 5.86 µM (inactive) | 2.33 | 18.2 µM (inactive) | 17.7 µM (inactive) | 11.7 µM (inactive) | 1.91 µM (inactive) | 2 µM (inactive) | 9.93 µM (inactive) | 2.13 µM (inactive) | 5.68 µM (inactive)
6 | CSc1ncnc2c1cnn2Cc1cn(CCCCO)nn1 | > 100 µM (inactive) | > 100 µM (inactive) | > 100 µM (inactive) | > 100 µM (inactive) | > 100 µM (inactive) | > 100 µM (inactive) | > 100 µM (inactive) | > 100 µM (inactive) | > 100 µM (inactive) | > 100 µM (inactive) | > 100 µM (inactive) | > 100 | > 100 µM (inactive) | > 100 µM (inactive) | > 100 µM (inactive) | > 100 µM (inactive) | > 100 µM (inactive) | > 100 µM (inactive) | > 100 µM (inactive) | > 100 µM (inactive)
7 | Cc1cn([C@@H]2O[C@H](CO[Si](C)(C)C(C)(C)C)[C@]3(O[C@H]3C(=O)NO)[C@H]2O[Si](C)(C)C(C)(C)C)c(=O)[nH]c1=O | 1.94 µM (inactive) | 2.01 µM (inactive) | 1.89 µM (inactive) | 1.79 µM (inactive) | 1.52 µM (inactive) | 2.47 µM (inactive) | 1.7 µM (inactive) | 1.85 µM (inactive) | 1.76 µM (inactive) | 1.66 µM (inactive) | 2.29 µM (inactive) | 1.87 | 1.62 µM (inactive) | 1.77 µM (inactive) | 1.71 µM (inactive) | 1.61 µM (inactive) | 1.84 µM (inactive) | 1.71 µM (inactive) | 1.91 µM (inactive) | 2.07 µM (inactive)
8 | CC1(c2ccc(F)cc2)CC(c2ccc(F)cc2)=C(C#N)C(=C(C#N)C#N)N1 (stereo not given) | 12.6 µM (inactive) | 16 µM (inactive) | 15.2 µM (inactive) | 20.1 µM (inactive) | 15.6 µM (inactive) | 11 µM (inactive) | 16.6 µM (inactive) | 18.7 µM (inactive) | 24 µM (inactive) | 17.4 µM (inactive) | 18.1 µM (inactive) | 14.8 | 15.8 µM (inactive) | 16.9 µM (inactive) | 17.1 µM (inactive) | 16.7 µM (inactive) | 17 µM (inactive) | 14.5 µM (inactive) | 7.57 µM (inactive) | 16.6 µM (inactive)
9 | O=C(c1ccccc1)c1ccc2[nH]c(-c3c(Cl)c(Cl)c(Cl)c(Cl)c3C(=O)N/N=C/c3ccc(Cl)cc3)nc2c1 | 43.6 µM (inactive) | 29.4 µM (inactive) | 56.8 µM (inactive) | 51.8 µM (inactive) | 44.6 µM (inactive) | 23.7 µM (inactive) | 44.1 µM (inactive) | 30.1 µM (inactive) | 33 µM (inactive) | 43 µM (inactive) | 40.1 µM (inactive) | 24.2 | 40.7 µM (inactive) | 29 µM (inactive) | 33 µM (inactive) | 39.2 µM (inactive) | 23.2 µM (inactive) | 20.6 µM (inactive) | 54.3 µM (inactive) | 32.8 µM (inactive)
10 | COC(=O)c1cc2cc3c(c(O)c2c(=O)o1)O[C@@]1(Oc2c(O)c4c(c(O)c2[C@H]1OC1CC(OC)C(O)C(C)O1)C(=O)C=C(OC)C4=O)[C@H](O)C3 (stereo not given in full) | 2.41 µM (inactive) | 1.53 µM (inactive) | 0.822 µM (active) | 1.06 µM (active) | 0.735 µM (active) | 0.841 µM (active) | 0.785 µM (active) | 1.17 µM (inactive) | 0.659 µM (active) | 1 µM (active) | 2.07 µM (inactive) | 0.908 | 0.986 µM (active) | 0.724 µM (active) | 0.705 µM (active) | 1.3 µM (inactive) | 1.74 µM (inactive) | 1.14 µM (inactive) | 1.07 µM (active) | 1.09 µM (active)
11 | O=C(O)c1c(CC(Cc2ccc3c(c2)CCCC3)C(=O)O)ccc2c1CCCC2 (stereo not given) | > 100 µM (inactive) | > 100 µM (inactive) | > 100 µM (inactive) | > 100 µM (inactive) | > 100 µM (inactive) | > 100 µM (inactive) | > 100 µM (inactive) | > 100 µM (inactive) | > 100 µM (inactive) | > 100 µM (inactive) | > 100 µM (inactive) | > 100 | > 100 µM (inactive) | > 100 µM (inactive) | > 100 µM (inactive) | > 100 µM (inactive) | > 100 µM (inactive) | < 0.01 µM (active) | > 100 µM (inactive) | > 100 µM (inactive)
12 | CN(CCc1ccccn1)c1ccc2c(c1)C(=O)c1ccccc1-2 | 15.2 µM (inactive) | 28.5 µM (inactive) | > 100 µM (inactive) | 99.1 µM (inactive) | > 100 µM (inactive) | 51.8 µM (inactive) | 43.3 µM (inactive) | > 100 µM (inactive) | > 100 µM (inactive) | 88.9 µM (inactive) | > 100 µM (inactive) | 23 | > 100 µM (inactive) | 91.4 µM (inactive) | > 100 µM (inactive) | 53.8 µM (inactive) | 18.5 µM (inactive) | > 100 µM (inactive) | > 100 µM (inactive) | > 100 µM (inactive)
13 | CC(C)(C)[Si](C)(C)OCC1OC(n2cnc3c(=O)[nH]c(N)nc32)C(O[Si](C)(C)C(C)(C)C)C1O[Si](C)(C)C(C)(C)C (stereo not given) | 2.61 µM (inactive) | 0.176 µM (active) | 2.33 µM (inactive) | 3.2 µM (inactive) | 1.49 µM (inactive) | 1.22 µM (inactive) | 1.78 µM (inactive) | 1.5 µM (inactive) | 1.93 µM (inactive) | 2.29 µM (inactive) | 2.34 µM (inactive) | > 46.9 | 2.58 µM (inactive) | 1.55 µM (inactive) | 1.92 µM (inactive) | 2.2 µM (inactive) | 19.5 µM (inactive) | 2.33 µM (inactive) | 2.47 µM (inactive) | 1.47 µM (inactive)
14 | CC(=O)/C(=C/NC(=S)c1cccnc1)C(=O)Nc1ccccc1C | > 100 µM (inactive) | > 100 µM (inactive) | > 100 µM (inactive) | 52.6 µM (inactive) | 83 µM (inactive) | > 100 µM (inactive) | 71.9 µM (inactive) | > 100 µM (inactive) | > 100 µM (inactive) | > 100 µM (inactive) | > 100 µM (inactive) | > 100 | > 100 µM (inactive) | > 100 µM (inactive) | > 100 µM (inactive) | > 100 µM (inactive) | > 100 µM (inactive) | > 100 µM (inactive) | > 100 µM (inactive) | > 100 µM (inactive)
